Measured values: PMC4669708 (Cell Death & Disease, 2015)

Columns and labels:
Test in all cases: c-ponatinib pulldown LC-MS/MS
Assay type in all cases: binding
PAG1 = molecular target: T1, PAG1 (Homo sapiens, UniProt Q9NWQ8)
T1 sequence (Q9NWQ8 1-432): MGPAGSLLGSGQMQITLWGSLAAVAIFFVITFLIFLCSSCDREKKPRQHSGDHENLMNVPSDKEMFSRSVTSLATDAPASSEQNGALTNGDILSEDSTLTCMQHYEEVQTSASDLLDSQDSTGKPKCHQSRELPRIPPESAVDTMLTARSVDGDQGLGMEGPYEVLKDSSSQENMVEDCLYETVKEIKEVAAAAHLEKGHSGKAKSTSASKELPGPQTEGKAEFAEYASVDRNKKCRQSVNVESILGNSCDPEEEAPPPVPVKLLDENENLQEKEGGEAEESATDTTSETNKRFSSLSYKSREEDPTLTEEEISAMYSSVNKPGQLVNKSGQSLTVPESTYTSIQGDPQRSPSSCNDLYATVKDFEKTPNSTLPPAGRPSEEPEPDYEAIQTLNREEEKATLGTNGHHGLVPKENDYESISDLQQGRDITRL
Procedure: (§1) Drug-affinity matrices were prepared as described previously.[51] In brief, 25 nmol of c-ponatinib were immobilized on 50 μl NHS-activated Sepharose 4 Fast Flow beads (GE Healthcare Bio-Sciences AB, Uppsala, Sweden). 10 mg whole cell lysate was used as protein input per replicate. Affinity chromatography and elution were performed in duplicate. After elution, the enriched proteins were reduced with dithiothreitol (DTT) and cysteine residues were alkylated by incubation with iodoacetamide. The samples were digested with modified porcine trypsin (Promega). Five percent of the digested eluates were purified and concentrated by C18 reversed-phase material. Subsequently, samples were analyzed in duplicates by gel-free one-dimensional LCMS.
(§2) Precursor and MS/MS peaks were extracted from the RAW files and saved in the MGF format using msconvert tool (ProteoWizard Library v2.1.2708, www.proteowizard.sourceforge.net) for subsequent protein identification. An initial database search was performed with broader mass tolerance and conservative score threshold to re-calibrate the mass lists for optimal final protein identification. For the initial protein database search, Mascot (www.matrixscience.com, v2.3.02) was used. Error tolerances on the precursor and fragment ions were ±10 p.p.m. and ±0.6 Da, respectively, and the database search limited to fully-tryptic peptides with maximum one missed cleavage, carbamidomethyl cysteine and methionine oxidation set as fixed and variable modifications, respectively. The Mascot peptide ion score threshold was set to 30, and at least three peptide identifications per protein were required. Searches were performed against the human UniProtKB/SwissProt database (www.uniprot.org release 2013.01) including all protein isoforms. The initial peptide identifications were used to deduce independent linear transformations for precursor and fragment masses that would minimize the mean square deviation of measured masses from theoretical. Re-calibrated mass list files were searched against the same human protein database by a combination of Mascot and Phenyx (GeneBio SA, Geneva, Switzerland; version 2.5.14) search engines using narrower mass tolerances (±4 p.p.m. and ±0.3 Da). One missed tryptic cleavage site was allowed. Carbamidomethyl cysteine was set as a fixed modification and oxidized methionine was set as a variable modification. To validate the proteins, Mascot and Phenyx output files were processed by internally developed parsers. Proteins with ≥2 unique peptides above a score T1, or with a single peptide above a score T2 were selected as unambiguous identifications. Additional peptides for these validated proteins with score >T3 were also accepted. For Mascot searches, the following thresholds were used: T1=14, T2=40 and T3=10; Phenyx thresholds were set to 4.2, 4.75 and 3.5, respectively (P-value<10^−3). The validated proteins retrieved by the two algorithms were merged, any spectral conflicts discarded and grouped according to shared peptides. A false discovery rate of <1% for protein identifications and <0.1% for peptides (including the ones exported with lower scores) was determined by applying the same procedure against a database of reversed protein sequences. […] In addition to Mascot protein scores that were proposed as an estimate of protein abundance by the original algorithm, the modified version also included Phenyx protein scores and spectral counts. The algorithm first estimated three measure-specific P-values for each putative interaction, and, in contrast to,[69] P-value calculation utilized the quantiles of the measurements rather than the original data. The Fisher's method was used to combine the three resulting P-values into a single P-value for drug–protein interaction specificity. We have also correlated interaction P-values with the magnitude of competition effect represented by the fold reduction of spectral counts on free compound competition. […]

YWHAZ = molecular target: T2, YWHAZ (Homo sapiens, UniProt P63104)
T2 sequence (P63104 1-245): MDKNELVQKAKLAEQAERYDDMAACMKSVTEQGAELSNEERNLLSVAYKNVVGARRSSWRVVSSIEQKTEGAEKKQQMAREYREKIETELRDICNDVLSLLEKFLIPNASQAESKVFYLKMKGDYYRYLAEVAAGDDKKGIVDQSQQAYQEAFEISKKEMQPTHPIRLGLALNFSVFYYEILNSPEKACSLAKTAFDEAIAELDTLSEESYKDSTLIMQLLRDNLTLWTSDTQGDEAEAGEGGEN
Procedure: as §1, §2

TUBA1B = TUBA1B (Homo sapiens, UniProt P68363)
Procedure: as §1, §2

YWHAE = molecular target: T3, YWHAE (Homo sapiens, UniProt P62258)
T3 sequence (P62258 1-255): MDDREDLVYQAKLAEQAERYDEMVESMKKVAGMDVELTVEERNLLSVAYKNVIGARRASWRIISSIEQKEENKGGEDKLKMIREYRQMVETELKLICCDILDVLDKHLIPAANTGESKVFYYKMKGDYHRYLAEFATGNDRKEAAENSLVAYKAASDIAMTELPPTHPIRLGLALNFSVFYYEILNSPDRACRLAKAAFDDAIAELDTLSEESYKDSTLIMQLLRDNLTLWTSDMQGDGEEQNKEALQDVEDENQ
Procedure: as §1, §2

STK10 = STK10 (Homo sapiens, UniProt O94804)
Procedure: as §1, §2

RIPK3 = RIPK3 (Homo sapiens, UniProt Q9Y572)
Procedure: as §1, §2

CSK = CSK (Homo sapiens, UniProt P41240)
Procedure: as §1, §2

MAP3K1 = MAP3K1 (Homo sapiens, UniProt Q13233)
Procedure: as §1, §2

Sequence of STK10 (O94804 whole entry): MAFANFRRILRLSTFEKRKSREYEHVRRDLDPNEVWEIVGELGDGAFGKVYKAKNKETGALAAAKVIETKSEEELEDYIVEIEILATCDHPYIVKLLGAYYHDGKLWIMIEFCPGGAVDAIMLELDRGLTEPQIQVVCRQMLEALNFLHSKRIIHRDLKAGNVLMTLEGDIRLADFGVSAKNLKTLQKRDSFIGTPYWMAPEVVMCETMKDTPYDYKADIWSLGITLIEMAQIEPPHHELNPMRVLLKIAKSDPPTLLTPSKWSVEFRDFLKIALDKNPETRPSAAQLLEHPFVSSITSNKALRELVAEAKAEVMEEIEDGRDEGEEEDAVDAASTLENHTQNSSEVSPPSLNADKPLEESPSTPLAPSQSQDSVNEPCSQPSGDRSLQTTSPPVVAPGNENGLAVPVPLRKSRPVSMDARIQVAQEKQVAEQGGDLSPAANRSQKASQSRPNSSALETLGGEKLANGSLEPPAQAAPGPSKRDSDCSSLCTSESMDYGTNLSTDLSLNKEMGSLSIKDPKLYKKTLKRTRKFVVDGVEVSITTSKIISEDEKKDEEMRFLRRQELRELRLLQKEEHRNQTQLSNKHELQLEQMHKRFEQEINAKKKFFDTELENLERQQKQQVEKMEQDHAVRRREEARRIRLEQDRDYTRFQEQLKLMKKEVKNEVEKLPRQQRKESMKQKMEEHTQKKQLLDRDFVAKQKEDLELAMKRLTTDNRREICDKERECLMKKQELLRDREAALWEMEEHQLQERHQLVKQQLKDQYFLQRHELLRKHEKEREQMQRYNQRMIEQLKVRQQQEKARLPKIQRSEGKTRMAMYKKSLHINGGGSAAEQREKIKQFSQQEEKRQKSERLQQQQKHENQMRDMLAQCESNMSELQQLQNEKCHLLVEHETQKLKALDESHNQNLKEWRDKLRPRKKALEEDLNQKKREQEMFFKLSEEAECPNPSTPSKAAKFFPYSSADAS
Sequence of MAP3K1 (Q13233 whole entry): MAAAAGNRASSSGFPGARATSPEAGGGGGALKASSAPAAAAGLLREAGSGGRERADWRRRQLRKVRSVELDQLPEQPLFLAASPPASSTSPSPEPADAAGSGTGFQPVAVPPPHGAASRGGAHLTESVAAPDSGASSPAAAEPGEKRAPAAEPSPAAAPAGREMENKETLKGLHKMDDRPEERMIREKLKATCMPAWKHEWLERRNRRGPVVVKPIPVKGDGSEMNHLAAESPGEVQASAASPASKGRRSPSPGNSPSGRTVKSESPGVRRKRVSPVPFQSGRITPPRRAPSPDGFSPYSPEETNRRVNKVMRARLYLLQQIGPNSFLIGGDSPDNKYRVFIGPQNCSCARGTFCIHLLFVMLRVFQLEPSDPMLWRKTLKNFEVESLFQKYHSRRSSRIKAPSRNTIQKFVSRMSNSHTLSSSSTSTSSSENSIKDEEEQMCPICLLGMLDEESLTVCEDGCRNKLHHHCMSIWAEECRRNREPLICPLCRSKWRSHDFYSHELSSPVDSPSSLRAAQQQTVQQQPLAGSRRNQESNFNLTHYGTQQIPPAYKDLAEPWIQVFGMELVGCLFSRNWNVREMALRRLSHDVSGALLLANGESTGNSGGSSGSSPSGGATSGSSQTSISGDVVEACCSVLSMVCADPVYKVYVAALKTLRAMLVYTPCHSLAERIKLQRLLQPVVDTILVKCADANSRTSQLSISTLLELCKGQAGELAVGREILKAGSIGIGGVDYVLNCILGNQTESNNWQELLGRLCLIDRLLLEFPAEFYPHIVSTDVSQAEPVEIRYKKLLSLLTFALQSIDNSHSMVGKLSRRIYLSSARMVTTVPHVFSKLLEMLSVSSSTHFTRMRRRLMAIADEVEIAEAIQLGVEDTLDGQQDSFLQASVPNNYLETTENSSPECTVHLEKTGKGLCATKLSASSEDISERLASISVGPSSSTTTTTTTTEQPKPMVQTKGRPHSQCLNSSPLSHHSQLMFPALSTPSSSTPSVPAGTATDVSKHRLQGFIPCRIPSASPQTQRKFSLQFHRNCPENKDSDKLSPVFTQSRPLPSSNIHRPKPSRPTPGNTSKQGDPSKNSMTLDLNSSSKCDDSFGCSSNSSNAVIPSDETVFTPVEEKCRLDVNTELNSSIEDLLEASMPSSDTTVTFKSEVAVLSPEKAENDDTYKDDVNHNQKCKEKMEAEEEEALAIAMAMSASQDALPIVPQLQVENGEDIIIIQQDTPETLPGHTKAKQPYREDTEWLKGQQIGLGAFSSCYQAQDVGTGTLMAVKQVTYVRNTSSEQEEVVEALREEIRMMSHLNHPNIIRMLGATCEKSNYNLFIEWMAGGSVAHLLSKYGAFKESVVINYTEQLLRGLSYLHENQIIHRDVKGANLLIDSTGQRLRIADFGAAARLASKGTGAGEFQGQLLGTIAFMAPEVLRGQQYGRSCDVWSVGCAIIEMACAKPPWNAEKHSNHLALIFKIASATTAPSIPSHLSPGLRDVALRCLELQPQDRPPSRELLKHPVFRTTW
Sequence of RIPK3 (Q9Y572 whole entry): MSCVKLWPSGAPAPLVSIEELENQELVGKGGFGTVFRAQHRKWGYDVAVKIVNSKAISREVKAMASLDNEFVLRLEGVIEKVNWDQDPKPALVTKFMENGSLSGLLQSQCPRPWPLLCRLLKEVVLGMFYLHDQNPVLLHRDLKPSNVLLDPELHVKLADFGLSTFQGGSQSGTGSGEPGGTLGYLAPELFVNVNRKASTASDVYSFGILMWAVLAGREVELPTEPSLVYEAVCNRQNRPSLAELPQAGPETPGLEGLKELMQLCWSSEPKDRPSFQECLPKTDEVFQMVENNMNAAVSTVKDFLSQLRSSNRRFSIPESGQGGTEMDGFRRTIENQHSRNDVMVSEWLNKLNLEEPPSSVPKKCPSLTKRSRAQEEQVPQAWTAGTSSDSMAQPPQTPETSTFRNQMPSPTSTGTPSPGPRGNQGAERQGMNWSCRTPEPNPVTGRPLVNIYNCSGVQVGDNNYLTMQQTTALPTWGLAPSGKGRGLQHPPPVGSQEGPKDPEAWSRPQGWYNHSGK
Sequence of TUBA1B (P68363 whole entry): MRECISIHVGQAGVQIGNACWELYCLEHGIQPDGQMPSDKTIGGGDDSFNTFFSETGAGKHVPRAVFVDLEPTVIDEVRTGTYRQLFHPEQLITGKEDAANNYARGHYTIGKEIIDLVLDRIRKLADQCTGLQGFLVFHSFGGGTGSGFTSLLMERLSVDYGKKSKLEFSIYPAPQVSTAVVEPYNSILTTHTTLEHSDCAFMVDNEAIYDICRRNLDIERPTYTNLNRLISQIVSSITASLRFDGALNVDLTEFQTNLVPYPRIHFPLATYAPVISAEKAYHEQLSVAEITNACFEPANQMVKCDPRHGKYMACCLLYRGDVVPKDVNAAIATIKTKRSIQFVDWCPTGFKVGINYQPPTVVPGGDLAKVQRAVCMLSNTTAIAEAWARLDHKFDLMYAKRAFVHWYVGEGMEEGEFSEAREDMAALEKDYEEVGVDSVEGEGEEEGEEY
Sequence of TUBA1B (P07437 whole entry partner): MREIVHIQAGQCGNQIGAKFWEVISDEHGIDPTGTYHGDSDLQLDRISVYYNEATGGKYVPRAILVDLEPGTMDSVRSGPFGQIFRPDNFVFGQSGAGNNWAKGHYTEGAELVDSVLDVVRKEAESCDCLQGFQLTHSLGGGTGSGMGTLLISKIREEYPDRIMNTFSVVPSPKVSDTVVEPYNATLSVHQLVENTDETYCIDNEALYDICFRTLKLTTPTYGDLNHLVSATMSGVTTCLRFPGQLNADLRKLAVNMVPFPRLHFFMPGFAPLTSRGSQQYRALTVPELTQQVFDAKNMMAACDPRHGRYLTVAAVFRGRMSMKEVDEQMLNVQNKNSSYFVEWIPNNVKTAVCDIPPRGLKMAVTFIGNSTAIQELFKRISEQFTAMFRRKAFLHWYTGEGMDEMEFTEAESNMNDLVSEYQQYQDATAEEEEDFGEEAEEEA

- Av. SC comp. (PAG1; + free ponatinib): 0
- Total SC comp. (PAG1; + free ponatinib): 0
- Av. SC (PAG1; no competitor): 2
- Total SC (PAG1; no competitor): 8
- Av. SC comp. (YWHAZ; + free ponatinib): 2.5
- Total SC comp. (YWHAZ; + free ponatinib): 10
- Av. SC (YWHAZ; no competitor): 10.5
- Total SC (YWHAZ; no competitor): 42
- Av. SC comp. (TUBA1B; + free ponatinib): 10.25
- Total SC comp. (TUBA1B; + free ponatinib): 41
- Av. SC (TUBA1B; no competitor): 18.5
- Total SC (TUBA1B; no competitor): 74
- Av. SC comp. (YWHAE; + free ponatinib): 1
- Total SC comp. (YWHAE; + free ponatinib): 4
- Av. SC (YWHAE; no competitor): 13
- Total SC (YWHAE; no competitor): 52
- Av. SC comp. (STK10; + free ponatinib): 0
- Total SC comp. (STK10; + free ponatinib): 0
- Av. SC (STK10; no competitor): 5.5
- Total SC (STK10; no competitor): 22
- Av. SC comp. (RIPK3; + free ponatinib): 0
- Total SC comp. (RIPK3; + free ponatinib): 0
- Av. SC (RIPK3; no competitor): 17
- Total SC (RIPK3; no competitor): 68
- Av. SC comp. (CSK; + free ponatinib): 4.5
- Total SC comp. (CSK; + free ponatinib): 18
- Av. SC (CSK; no competitor): 52.25
- Total SC (CSK; no competitor): 209
- Av. SC comp. (MAP3K1; + free ponatinib): 0
- Total SC comp. (MAP3K1; + free ponatinib): 0
- Av. SC (MAP3K1; no competitor): 9
- Total SC (MAP3K1; no competitor): 36
Compound: Cc1ccc(C(=O)Nc2ccc(CN3CCN(CCCN)CC3)c(C(F)(F)F)c2)cc1C#Cc1cnc2cccnn12 [c-ponatinib]
